The values below come from patent US12570675B2, “Boronic acid compounds” (LG CHEM, LTD., priority 2020, dated 2026).

Assay [1] deals with Proteasome chymotrypsin-like activity (S26 protein from RPMI8226 cells) (Homo sapiens, UniProt P28074). It is filed as biochemical. To be noted: S26 protein from RPMI8226 cell extract 2 ug/well, substrate 20 uM, 37° C., 90 minutes; read-out: Proteasome chymotrypsin-like activity inhibition IC50. Summed up: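 Inhibition is measured in crude proteasome (S26) from RPMI8226 cells at 2 ug/well, using 20 uM substrate specific to each activity: Suc-LLVY-AMC for chymotrypsin-like, Z-LLE-AMC for caspase-like. Compounds span a dilution series from 10 uM.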
Proteasome chymotrypsin-like activity (S26 protein from RPMI8226 cells), sequence (P28074 60-263 limits assumed): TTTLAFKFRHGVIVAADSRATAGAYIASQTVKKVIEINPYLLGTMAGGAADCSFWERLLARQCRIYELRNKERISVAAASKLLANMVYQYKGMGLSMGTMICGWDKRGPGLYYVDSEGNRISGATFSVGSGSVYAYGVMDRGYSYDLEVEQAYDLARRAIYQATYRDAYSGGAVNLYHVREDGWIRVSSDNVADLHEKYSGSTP

Assay [2] has as its target Proteasome caspase-like activity (S26 protein from RPMI8226 cells) (Homo sapiens (Human), UniProt P28072). Description: Proteasome caspase-like activity inhibition (Z-Leu-Leu-Glu-AMC fluorogenic substrate, RPMI8226 cell extract). To be noted: S26 protein from RPMI8226 cell extract 2 ug/well, substrate 20 uM, 37° C., 90 minutes. It is filed as biochemical. Here is the method:
The abilities to inhibit the proteasome activity of the compounds described in the Examples of the present invention and boronic acid drugs were evaluated as follows.
RPMI8226 cells, which is a multiple myeloma cell line, were cultured and then separated by a centrifuge, and washed twice with phosphate buffered saline (PBS). 20 mM of a tris-HCl (pH 8.0) buffer solution was added to the washed cells, and the cells were disrupted by a homogenizer and centrifuged to obtain S26 protein from the supernatant. Suc-Leu-Leu-Val-Tyr-AMC, for a fluorogenic substrate for the chymotrypsin-like activity of the proteasome, and Z-Leu-Leu-Glu-AMC, for a fluorogenic substrate for the caspase-like activity, were purchased from Calbiochem, EMD Millipore and used. Into each well of a 96-well plate (opaque, black round bottom), 20 ul of the S26 protein (final RPMI8226 cell extract concentration: 2 ug/well), 10 ul of S26 proteasome inhibitor serially diluted from 10 uM (final DMSO concentration: 0.5%), and 20 ul of the fluorogenic substrate for the proteasome chymotrypsin-like or caspase-like activity (final concentration: 20 uM) were added and mixed and allowed to react in a 37° C. incubator for 90 minutes. The fluorescence of the fluorogenic substrate was measured by FlexStation II Fluorometer (Molecular Devices). The fluorescence inhibited by the compound diluted at each concentration was measured as the relative percentage value for the amount obtained from the treatment only with the S26 protein and the fluorogenic substrate. IC50 (inhibitory concentration 50) was expressed in terms of a concentration that inhibits 50% of the maximum fluorescence induced by the fluorogenic substrate.

Bounds are passed on as bounds.

Proteasome caspase-like activity (S26 protein from RPMI8226 cells), sequence (P28072 whole entry): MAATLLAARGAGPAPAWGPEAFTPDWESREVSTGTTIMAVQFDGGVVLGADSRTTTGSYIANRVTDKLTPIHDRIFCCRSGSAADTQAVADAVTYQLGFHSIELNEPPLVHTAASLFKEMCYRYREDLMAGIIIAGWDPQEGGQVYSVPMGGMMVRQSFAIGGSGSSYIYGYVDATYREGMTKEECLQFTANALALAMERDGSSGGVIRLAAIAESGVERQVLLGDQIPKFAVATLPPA

In the case of `CC(C)C[C@H](NC(=O)C1(Cc2ccccc2)CC(CNC(=O)c2cccc3c2CCCC3)=NO1)B(O)O` (stereo partly drawn) [Example 115, ((1R)-1-(5-benzyl-3-((5,6,7,8-tetrahydronaphthalen-1-carboxamido)methyl)-4,5-dihydroisoxazol-5-carboxamido)-3-methylbutyl)boronic acid], the IC50 in assay [1] is < 10 nM; in assay [2], > 1000 nM.
Regarding `CC(C)C[C@H](NC(=O)C1CC(CNC(=O)c2nccc3ccccc23)=NO1)B(O)O` (stereo partly drawn) [Example 61, ((1R)-1-(3-((isoquinolin-1-carboxamido)methyl)-4,5-dihydroisoxazol-5-carboxamido)-3-methylbutyl)boronic acid], the IC50 is < 10 nM in assay [1] and > 500 nM in assay [2].
The corresponding values for `Cc1nc2ccccn2c1C(=O)NCC1=NOC(Cc2ccccc2)(C(=O)N[C@@H](CC(C)C)B(O)O)C1` (stereo partly drawn) [Example 133, ((1R)-1-(5-benzyl-3-((2-methylimidazo[1,2-a]pyridin-3-carboxamido)methyl)-4,5-dihydroisoxazol-5-carboxamido)-3-methylbutyl)boronic acid] are < 10 nM and > 500 nM.
The corresponding values for `CC(C)C[C@H](NC(=O)C1(Cc2ccccc2)CC(CNC(=O)c2ccc3c(ccn3C(C)C)c2)=NO1)B(O)O` (stereo partly drawn) [Example 129, ((1R)-1-(5-benzyl-3-((1-isopropyl-1H-indol-5-carboxamido)methyl)-4,5-dihydroisoxazol-5-carboxamido)-3-methylbutyl)boronic acid] are < 10 nM and > 250 nM.
The corresponding values for `Cc1cnc(C(=O)NCC2=NOC(Cc3ccccc3)(C(=O)N[C@@H](CC(C)C)B(O)O)C2)cn1` (stereo partly drawn) [Example 151, [(1R)-1-[[5-benzyl-3-[[(5-methylpyrazin-2-carbonyl)amino]methyl]-4H-1,2-oxazol-5-carbonyl]amino]-3-methyl-butyl]boronic acid] are < 10 nM and > 250 nM.
Turning to `O=C(N[C@@H](Cc1ccccc1)B(O)O)C1(Cc2ccccc2)CC(COCc2ccccc2)=NO1` (stereo partly drawn) [Example 257, ((1R)-1-(5-benzyl-3-((benzyloxy)methyl)-4,5-dihydroisoxazol-5-carboxamido)-2-phenylethyl)boronic acid], the IC50 is < 10 nM in assay [1] and > 2500 nM in assay [2].
On the same counts, the results for `CC(C)C[C@H](NC(=O)C1(Cc2ccccc2)CC(CNC(=O)c2nn(C(C)C)c3ccccc23)=NO1)B(O)O` (stereo partly drawn) [Example 202, ((1R)-1-(5-benzyl-3-((1-isopropyl-1H-indazol-3-carboxamido)methyl)-4,5-dihydroisoxazol-5-carboxamido)-3-methylbutyl)boronic acid] are < 10 nM and > 500 nM.
The corresponding values for `CC(C)C[C@H](NC(=O)C1(Cc2ccc(F)cc2F)CC(CNC(=O)c2nccc3ccccc23)=NO1)B(O)O` (stereo partly drawn) [Example 178, ((1R)-1-(5-(2,4-difluorobenzyl)-3-((isoquinolin-1-carboxamido)methyl)-4,5-dihydroisoxazol-5-carboxamido)-3-methylbutyl)boronic acid] are < 10 nM and > 1000 nM.
On the same counts, the results for `CC(C)C[C@H](NC(=O)C1(Cc2ccccc2)CC(CNC(=O)c2cnn(C(C)C)c2)=NO1)B(O)O` (stereo partly drawn) [Example 188, ((1R)-1-(5-benzyl-3-((1-isopropyl-1H-pyrazol-4-carboxamido)methyl)-4,5-dihydroisoxazol-5-carboxamido)-3-methylbutyl)boronic acid] are < 10 nM and > 1000 nM.
Turning to `CC(C)C[C@H](NC(=O)C1(Cc2ccccc2F)CC(CNC(=O)c2nccc3ccccc23)=NO1)B(O)O` (stereo partly drawn) [Example 170, ((1R)-1-(5-(2-fluorobenzyl)-3-((isoquinolin-1-carboxamido)methyl)-4,5-dihydroisoxazol-5-carboxamido)-3-methylbutyl)boronic acid], the IC50 in assay [1] was < 10 nM; in assay [2], > 1000 nM.
The corresponding values for `CC(C)C[C@H](NC(=O)C1(Cc2ccccc2)CC(CNC(=O)c2cccc3cccnc23)=NO1)B(O)O` (stereo partly drawn) [Example 113, ((1R)-1-(5-benzyl-3-((quinolin-8-carboxamido)methyl)-4,5-dihydroisoxazol-5-carboxamido)-3-methylbutyl)boronic acid] are < 10 nM and > 500 nM.
The corresponding values for `CC(C)C[C@H](NC(=O)C1(Cc2ccccc2)CC(CNC(=O)c2cccc3ncccc23)=NO1)B(O)O` (stereo partly drawn) [Example 116, ((1R)-1-(5-benzyl-3-((quinolin-5-carboxamido)methyl)-4,5-dihydroisoxazol-5-carboxamido)-3-methylbutyl)boronic acid] are < 10 nM and > 2500 nM.
For the compound `Cc1cccc(CC2(C(=O)N[C@@H](CC(C)C)B(O)O)CC(CNC(=O)c3nccc4ccccc34)=NO2)c1` (stereo partly drawn) [Example 125, ((1R)-1-(3-((isoquinolin-1-carboxamido)methyl)-5-(3-methylbenzyl)-4,5-dihydroisoxazol-5-carboxamido)-3-methylbutyl)boronic acid], the values for the IC50 in assay [1] and in assay [2] were < 10 nM and > 500 nM, respectively.
On the same counts, the results for `CC(C)C[C@H](NC(=O)C1(Cc2ccccc2)CC(CNC(=O)c2cc(-c3ccccc3)nn2C(C)C)=NO1)B(O)O` (stereo partly drawn) [Example 207, ((1R)-1-(5-benzyl-3-((1-isopropyl-3-phenyl-1H-pyrazol-5-carboxamido)methyl)-4,5-dihydroisoxazol-5-carboxamido)-3-methylbutyl)boronic acid] are < 10 nM and > 250 nM.
The corresponding values for `CC(C)C[C@H](NC(=O)C1(Cc2ccccc2)CC(CNC(=O)c2cccc3c2cnn3C)=NO1)B(O)O` (stereo partly drawn) [Example 204, ((1R)-1-(5-benzyl-3-((1-methyl-1H-indazol-4-carboxamido)methyl)-4,5-dihydroisoxazol-5-carboxamido)-3-methylbutyl)boronic acid] are < 10 nM and > 500 nM.
The corresponding values for `Cc1ccccc1CC1(C(=O)N[C@@H](CC(C)C)B(O)O)CC(CNC(=O)c2nccc3ccccc23)=NO1` (stereo partly drawn) [Example 154, ((1R)-1-(3-((isoquinolin-1-carboxamido)methyl)-5-(2-methylbenzyl)-4,5-dihydroisoxazol-5-carboxamido)-3-methylbutyl)boronic acid] are < 10 nM and > 500 nM.
As to `CC(C)C[C@H](NC(=O)C1(Cc2ccccc2)CC(CNC(=O)c2c[nH]c3ccccc23)=NO1)B(O)O` (stereo partly drawn) [Example 124, ((1R)-1-(3-((1H-indol-3-carboxamido)methyl)-5-benzyl-4,5-dihydroisoxazol-5-carboxamido)-3-methylbutyl)boronic acid], the IC50 in assay [1] was < 10 nM; in assay [2] it was > 500 nM.
`CC(C)C[C@H](NC(=O)C1(Cc2ccccc2)CC(CNC(=O)c2cc(C(F)(F)F)ccc2Cl)=NO1)B(O)O` (stereo partly drawn) [Example 112, ((1R)-1-(5-benzyl-3-((2-chloro-5-(trifluoromethyl)benzamido)methyl)-4,5-dihydroisoxazol-5-carboxamido)-3-methylbutyl)boronic acid]: the IC50 in assay [1] was < 10 nM; in assay [2], > 2500 nM.
On the same counts, the results for `CC(C)C[C@H](NC(=O)C1(Cc2ccccc2)CC(CNC(=O)c2cc(Cl)ccc2Cl)=NO1)B(O)O` (stereo partly drawn) [Example 85, ((1R)-1-(5-benzyl-3-((2,5-dichlorobenzamido)methyl)-4,5-dihydroisoxazol-5-carboxamido)-3-methylbutyl)boronic acid] are < 10 nM and > 1000 nM.
On the same counts, the results for `CC(C)[C@H](NC(=O)C1(Cc2ccccc2)CC(CNC(=O)c2ccccc2)=NO1)B(O)O` (stereo partly drawn) [Example 294, ((1R)-1-(3-(benzamidomethyl)-5-benzyl-4,5-dihydroisoxazol-5-carboxamido)-2-methylpropyl)boronic acid] are < 10 nM and > 1000 nM.
Regarding `CC(C)C[C@H](NC(=O)C1(C)CC(CNC(=O)c2cc(Cl)ccc2Cl)=NO1)B(O)O` (stereo partly drawn) [Example 86, ((1R)-1-(3-((2,5-dichlorobenzamido)methyl)-5-methyl-4,5-dihydroisoxazol-5-carboxamido)-3-methylbutyl)boronic acid], the IC50 in assay [1] was < 50 nM; in assay [2] it was > 2500 nM.
The corresponding values for `CC(C)C[C@H](NC(=O)C1(Cc2ccccc2)CC(CNC(=O)c2ccccc2)=NO1)B(O)O` (stereo partly shown) [Example 291] are < 10 nM and > 250 nM.
On the same counts, the results for `CC(C)C[C@H](NC(=O)C1(Cc2ccccc2)CC(CNC(=O)c2cccc3[nH]ccc23)=NO1)B(O)O` (stereo partly drawn) [Example 127, ((1R)-1-(3-((1H-indol-4-carboxamido)methyl)-5-benzyl-4,5-dihydroisoxazol-5-carboxamido)-3-methylbutyl)boronic acid] are < 10 nM and > 500 nM.
